Results reported in patent EP2987482A1 (Santa Farma Ilaç Sanayi A.S., priority 2014, dated 2016).

What was measured:
[1] = pH of media after dissolving the composition in water; type: physicochemical; details: magnetic stirrer for 3 minutes
[2] = cited from earlier work

With “4-[3,5-bis(2-hydroxyphenyl)-[1,2,4]triazol-1-yl]benzoic acid [deferasirox]” the pH of media ([1]; composition with 500 mg deferasirox and 40 mg sodium carbonate) was 8.13, the pH of media ([1]; composition with 500 mg deferasirox and 60 mg sodium carbonate) was 8.33 and the pH of media ([1]; composition with 500 mg deferasirox and 80 mg sodium carbonate) was 8.44. For the same substance, the pH of media ([1]; composition with 500 mg deferasirox and 100 mg sodium carbonate) was 8.65, the pH of media ([1]; composition with 500 mg deferasirox and 120 mg sodium carbonate) was 8.77 and the pH of media ([1]; composition with 500 mg deferasirox and 140 mg sodium carbonate) was 8.84. For the same substance, the pH of media ([1]; composition with 500 mg deferasirox and 160 mg sodium carbonate) was 8.91 and the permeability [2] was “good permeability”.
